US20140349941A1, “AROMATIC-CATIONIC PEPTIDES AND USES OF SAME” (Cornell University, priority 2011, published 2014)

How the values were obtained:
[1] = target: cyt c (Homo sapiens, UniProt P99999); test: Photoluminescence of cyt c (532.8 nm laser excitation); settings: excitation 532.8 nm
Text: A light source 140, such as a laser or light-emitting diode (LED), illuminates the doped cyt c layer 110 at an excitation wavelength, such as 532.8 nm. […] (As understood by those skilled in the art, the gap between the valence band and the excited state is […] to the excitation wavelength.) After a short relaxation time, the electron decays from the excited state to a conduction band. When the electron relaxes to valence band from the conduction band, the doped cyt c layer 110 emits a photon at a luminescence wavelength, such as 650 nm, fixed by the gap between the valence and conduction bands.
Thus, as the aromatic-cationic peptide or aromatic-cationic peptide/cardiolipin or cardiolipin concentration in the doped cyt c layer 110 varies due to changes in the pH and/or temperature of the test substrate 130, the intensity at the luminescence wavelength varies as well. Detecting this change in intensity with a photodetector 150 yields an indication of the pH and/or temperature of the test substrate 130.
Photoluminescence (PL) was carried out to examine the effects of SS-31 on the electronic structure of conduction band of the heme of cyt c, an energy state responsible for electronic transport (FIG. 3). A […] laser (532.8 nm) was used to excite electrons in cyt c (FIG. 2A). Strong PL emission in cyt c state can be clearly identified at 650 nm (FIG. 2B).

[2] = target: cyt c heme (Homo sapiens, UniProt P99999); test: Circular dichroism of cyt c Soret band; type: binding; settings: negative peak at 415 nm without peptide; FIG. 4
Experimental: Circular dichroism (Olis spectropolarimeter, DSM20) was carried out to monitor Soret band (negative peak at 415 nm), as a probe for the π-π* heme environment in cyt c (FIG. 4). […] The increase in π-π* interaction around the heme would enhance electron tunneling which would be favorable for electron diffusion.

[3] = system: isolated rat kidney mitochondria; test: O2 consumption of isolated rat kidney mitochondria (Oxygraph); type: biochemical
Experimental: Fresh mitochondria were isolated from rat kidney as described previously. Electron flux was measured by O2 consumption (Oxygraph Clark electrode) as previously described using different substrates for C1 (glutamate/malate), C2 (succinate), and C3 (TMPD/ascorbate). Assays were carried out under low substrate conditions in order to avoid saturating the enzyme reactions. ATP production in isolated mitochondria was determined kinetically using the luciferase method (Biotherma) in a 96-well luminescence plate reader (Molecular Devices). The initial maximal rate for ATP synthesis was determined over the first minute.
Oxygen consumption of isolated rat kidney mitochondria was determined using the Oxygraph (FIG. 5). Rates of respiration were measured in the presence of different concentrations of SS-31 in state 2 (400 μM ADP only), state 3 (400 μM ADP and 500 μM substrates) and state 4 (substrates only). All experiments were done in triplicate with n=4-7.
SS-20 or SS-31 was added at 100 μM concentrations to isolated mitochondria in respiration buffer containing 0.5 mM succinate (complex II substrate) and 400 μM ADP. Similar increases in O2 consumption were observed when low concentrations of complex I substrates (glutamate/malate) were used (data not shown).
SS-20 or SS-31 was added at 10 μM or 100 μM concentrations to isolated mitochondria in respiration buffer containing glutamate/malate (complex I substrate), 0.5 mM succinate (complex II substrate) or 3 μM TMPD/1 mM ascorbate (direct reductant of cyt C). 400 μM ADP was added to initiate State 3 respiration.

[4] = target: heme environment of cytochrome c (with CL) (Homo sapiens, UniProt P99999); test: Soret CD spectrum of cyt C in the presence of CL; type: binding; settings: cyt C 10 μM; CL 30 μg/ml; peptide 10 μM; 20 mM HEPES pH 7.5, 25° C.; FIG. 24
Experimental: Circular dichroism (CD) was carried out to examine the effects of the peptides on protecting the heme environment of cyt C from the acyl chain of CL. For heme proteins, the Soret CD spectrum is strictly correlated with the heme pocket conformation. In particular, the negative 416-420 nm Cotton effect is considered diagnostic of Fe(III)-Met80 coordination in native cyt C (Santucci and Ascoli, 1997). […] CD spectra were obtained using AVIV CD Spectrometer Model 410.
Changes in the Soret CD spectrum of cyt C (10 μM) were recorded in the absence (dotted line) and presence (dashed line) of 30 μg/ml CL, plus addition of different peptides (10 μM) (solid line) (FIG. 24). CD measurements were carried out using 20 mM HEPES, pH 7.5, at 25° C. and expressed as molar ellipticity (θ) (m Deg).

[5] = target: cytochrome c (with CL) (Homo sapiens, UniProt P99999); test: Cytochrome c reduction inhibited by CL; type: biochemical
Experimental: Cytochrome c is a carrier of electrons between respiratory complex III and IV in mitochondria. Cytochrome c is reduced (Fe^2+) after it accepts an electron from cytochrome c reductase, and it is then oxidized to Fe^3+ by cytochrome c oxidase.
Reduction of cytochrome c (20 μM) was induced by the addition of glutathione (500 μM) in the absence or presence of CL (100 μg/ml) (FIG. 25A). Reduction of cytochrome c was monitored by absorbance at 550 nm using a 96-well UV-VIS plate reader (Molecular Devices). Addition of CL decreased the rate of cytochrome c reduction by half.

Sequence of cytochrome c (with CL) (P99999 2-105 limits assumed, species assumed): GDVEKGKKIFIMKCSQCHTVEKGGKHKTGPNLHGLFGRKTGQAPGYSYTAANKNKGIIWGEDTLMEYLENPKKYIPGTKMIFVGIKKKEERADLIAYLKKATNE
Sequence of heme environment of cytochrome c (with CL) (P99999 2-105 limits assumed, species assumed): as above
Sequence of cyt c heme (P99999 2-105 limits assumed, species assumed): as above
Sequence of cyt c (P99999 2-105 limits assumed, species assumed): as above

Substance: D-Arg-2′6′Dmt-Lys-Phe-NH2 [SS-31]
- PL intensity of cyt c at 650 nm [1]: increased dose-dependently
- position of Soret band negative peak after red shift [2]: 440 nm
- O2 consumption in state 3 respiration ([3]; glutamate/malate, succinate or TMPD/ascorbate, 400 μM ADP, FIG. 26): increased O2 consumption in state 3 respiration
- electron flux, as measured by O2 consumption ([3]; peptide 10 μM or 100 μM, complex I, complex II substrate or TMPD/ascorbate, FIG. 26): can promote electron flux
- electron flux, as measured by O2 consumption ([3]; peptide 100 μM, 0.5 mM succinate, 400 μM ADP, FIG. 14): can promote electron flux
- electron transfer to oxygen (rates of respiration) ([3]; state 2, state 3 and state 4, different concentrations, FIG. 5): promoted electron transfer to oxygen without uncoupling mitochondria
- disappearance of the negative Cotton effect caused by CL (heme environment of cytochrome c) [4]: Protect the Heme Environment of Cytochrome C from the Acyl Chain of CL
- inhibitory effect of CL on kinetics of cytochrome c reduction ([5]; 500 μM GSH or 50 μM ascorbate, FIG. 25B): dose-dependently overcame the inhibitory effect of CL
- inhibitory action of CL on rate of cytochrome c reduction ([5]; cytochrome c 20 μM, glutathione 500 μM, CL 100 μg/ml, peptide 20, 40 or 100 μM, FIG. 25A): dose-dependently prevented the inhibitory action of CL
